As a reminder, the IC50 is the midpoint of a concentration-inhibition curve. A high value points to a need for much substance.

Counter-ions that a name gives are not always drawn.

Data on 17 compounds can be found in US9376425B2, “Heterocyclic compounds as MDM2 inhibitors for the treatment of cancer” (AMGEN INC., priority 2011, dated 2016).

This test deals with T1, human MDM2 (GST-hMDM2 1-188), interaction with biotinylated-p53 (1-83) (Homo sapiens, UniProt Q00987).
T1 construct: Amino acid residues 1-188 of human MDM2 were expressed; made in house; host or cells: Escherichia coli
T1 sequence (Q00987 1-188): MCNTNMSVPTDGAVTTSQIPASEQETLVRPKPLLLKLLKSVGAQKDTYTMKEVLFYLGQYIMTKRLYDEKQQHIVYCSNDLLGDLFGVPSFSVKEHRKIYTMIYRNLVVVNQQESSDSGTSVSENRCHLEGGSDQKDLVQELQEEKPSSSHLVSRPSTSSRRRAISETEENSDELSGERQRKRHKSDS
In words: improved HTRF assay (HTRF2 assay), inhibition of HDM2-p53 interaction. It counts as binding. The note with it: 0.2 nM GST-hMDM2, 0.5 nM biotinylated-p53, 100 mM KF. A digest of the protocol:
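GST-hMDM2 preincubated 20 min at RT with serially diluted compound, then biotinylated p53 (1-83, E. coli) added for 60 min. Detection with SA-XLent, anti-GST cryptate and KF, equilibrated >4 h; final DMSO 2%. TR-FRET read; % inhibition calculated relative to nutlin-3.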
A general note: In TR-FRET formats the signal depends on donor and acceptor labels being close together.
For the compound `C[C@@H](CS(=O)(=O)C(C)(C)C)N1C(=O)[C@H](CC(=O)N2CCOCC2)O[C@H](c2cccc(Cl)c2)[C@H]1c1ccc(Cl)cc1` (single isomer, unassigned) [Example 235, (2S,5R,6R)-4-((S)-1-(tert-butylsulfonyl)propan-2-yl)-6-(3-chlorophenyl)-5-(4-chlorophenyl)-2-(2-morpholino-2-oxoethyl)morpholin-3-one or (2R,5R,6R)-4-((S)-1-(tert-butylsulfonyl)propan-2-yl)-6-(3-chlorophenyl)-5-(4-chlorophenyl)-2-(2-morpholino-2-oxoethyl)morpholin-3-one], half-maximal inhibition (IC50) required 0.011 µM. With `O=C(O)C[C@H]1O[C@H](c2cccc(Cl)c2)[C@@H](c2ccc(Cl)cc2)N([C@H](CN(c2cc(F)ccc2F)S(=O)(=O)C2CC2)C2CC2)C1=O` (single isomer, unassigned) [Example 276, 2-((2R,5R,6R)-6-(3-Chlorophenyl)-5-(4-chlorophenyl)-4-((S)-1-cyclopropyl-2-(N-(2,5-difluorophenyl)cyclopropanesulfonamido)ethyl)-3-oxomorpholin-2-yl)acetic acid or 2-((2S,5R,6R)-6-(3-chlorophenyl)-5-(4-chlorophenyl)-4-((S)-1-cyclopropyl-2-(N-(2,5-difluorophenyl)cyclopropanesulfonamido)ethyl)-3-oxomorpholin-2-yl)acetic acid] the figure was < 0.001 µM.

The compound `CC[C@@H](CS(=O)(=O)C(C)(C)C)N1C(=O)C(CN)O[C@H](c2cccc(Cl)c2)[C@H]1c1ccc(Cl)cc1` (mixture of isomers) [Example 378, (2R,5R,6R)-2-(Aminomethyl)-4-((S)-1-(tert-butylsulfonyl)butan-2-yl)-6-(3-chlorophenyl)-5-(4-chlorophenyl)morpholin-3-one hydrochloride and (2S,5R,6R)-2-(aminomethyl)-4-((S)-1-(tert-butylsulfonyl)butan-2-yl)-6-(3-chlorophenyl)-5-(4-chlorophenyl)morpholin-3-one hydrochloride] showed an IC50 of 0.142 µM. `CC[C@@H](CS(=O)(=O)C(C)(C)C)N1C(=O)[C@@H](Cc2nnnn2C)O[C@H](c2cccc(Cl)c2)[C@H]1c1ccc(Cl)cc1` (single isomer, unassigned) [Example 401, (2R,5R,6R)-4-((S)-1-(tert-Butylsulfonyl)butan-2-yl)-6-(3-chlorophenyl)-5-(4-chlorophenyl)-2-((1-methyl-1H-tetrazol-5-yl)methyl)morpholin-3-one or (2R,5R,6R)-4-((S)-1-(tert-butylsulfonyl)butan-2-yl)-6-(3-chlorophenyl)-5-(4-chlorophenyl)-2-((2-methyl-2H-tetrazol-5-yl)methyl)morpholin-3-one] came in with an IC50 of 0.038 µM. With `CC(C)[C@@H](CS(=O)(=O)C(C)(C)C)N1C(=O)[C@@H](CC(=O)O)O[C@H](c2cccc(Cl)c2)[C@H]1c1ccc(Cl)c(F)c1` (single isomer, unassigned) [Example 311], the IC50 was found to be 0.005 µM.

Consider `C[C@H]1CCCN1S(=O)(=O)C[C@H](C1CC1)N1C(=O)[C@@](C)(CC(=O)O)O[C@H](c2cccc(Cl)c2)[C@H]1c1ccc(Cl)cc1` (single isomer, unassigned) [Example 336, 2-((2R,5R,6R)-6-(3-Chlorophenyl)-5-(4-chlorophenyl)-4-((S)-1-cyclopropyl-2-(((S)-2-methylpyrrolidin-1-yl)sulfonyl)ethyl)-2-methyl-3-oxomorpholin-2-yl)acetic acid or 2-((2S,5R,6R)-6-(3-chlorophenyl)-5-(4-chlorophenyl)-4-((S)-1-cyclopropyl-2-(((S)-2-methylpyrrolidin-1-yl)sulfonyl)ethyl)-2-methyl-3-oxomorpholin-2-yl)acetic acid], for which the IC50 is < 0.001 µM.

`CNC(=O)C[C@H]1O[C@H](c2cccc(Cl)c2)[C@@H](c2ccc(Cl)cc2)N([C@H](CN(c2ccccc2F)S(=O)(=O)C2CC2)C2CC2)C1=O` (single isomer, unassigned) [Example 364, 2-((2R,5R,6R)-6-(3-Chlorophenyl)-5-(4-chlorophenyl)-4-((S)-1-cyclopropyl-2-(N-(2-fluorophenyl)cyclopropanesulfonamido)ethyl)-3-oxomorpholin-2-yl)-N-methylacetamide or 2-((2S,5R,6R)-6-(3-chlorophenyl)-5-(4-chlorophenyl)-4-((S)-1-cyclopropyl-2-(N-(2-fluorophenyl)cyclopropanesulfonamido)ethyl)-3-oxomorpholin-2-yl)-N-methylacetamide]: the concentration for half-maximal inhibition (IC50) is < 0.001 µM. With `CC[C@@H](CN(c1ccccc1Cl)S(=O)(=O)C1CC1)N1C(=O)[C@@H](CC(=O)O)O[C@H](c2cccc(Cl)c2)[C@H]1c1ccc(Cl)cc1` (single isomer, unassigned) [Example 264, 2-((2R,5R,6R)-6-(3-chlorophenyl)-5-(4-chlorophenyl)-4-((S)-1-(N-(2-chlorophenyl)cyclopropanesulfonamido)butan-2-yl)-3-oxomorpholin-2-yl)acetic acid or 2-((2S,5R,6R)-6-(3-chlorophenyl)-5-(4-chlorophenyl)-4-((S)-1-(N-(2-chlorophenyl)cyclopropanesulfonamido)butan-2-yl)-3-oxomorpholin-2-yl)acetic acid], the IC50 came out at 0.019 µM. For `O=C(O)C[C@H]1O[C@H](c2cccc(Cl)c2)[C@@H](c2ccc(Cl)cc2)N([C@H](CN(c2ncccc2F)S(=O)(=O)C2CC2)C2CC2)C1=O` (single isomer, unassigned) [Example 189, 2-((2R,5R,6R)-6-(3-chlorophenyl)-5-(4-chlorophenyl)-4-((S)-1-cyclopropyl-2-(N-(3-fluoropyridin-2-yl)cyclopropanesulfonamido)ethyl)-3-oxomorpholin-2-yl)acetic acid or 2-((2S,5R,6R)-6-(3-chlorophenyl)-5-(4-chlorophenyl)-4-((S)-1-cyclopropyl-2-(N-(3-fluoropyridin-2-yl)cyclopropanesulfonamido)ethyl)-3-oxomorpholin-2-yl)acetic acid], the IC50 is < 0.001 µM.

For the compound “(2R,5R,6R)-4-((S)-2-(tert-Butylsulfonyl)-1-cyclopropylethyl)-6-(3-chlorophenyl)-5-(4-chlorophenyl)-2-((3-methyl-1H-1,2,4-triazol-5-yl)methyl)morpholin-3-one and (2S,5R,6R)-4-((S)-2-(tert-butylsulfonyl)-1-cyclopropylethyl)-6-(3-chlorophenyl)-5-(4-chlorophenyl)-2-((3-methyl-1H-1,2,4-triazol-5-yl)methyl)morpholin-3-one [Example 391]”, the IC50 amounted to 0.004 µM.

The compound `CC(C)(C)S(=O)(=O)C[C@H](C1CC1)N1C(=O)[C@H](Cc2ccno2)O[C@H](c2cccc(Cl)c2)[C@H]1c1ccc(Cl)cc1` [Example 384, (2S,5R,6R)-4-((S)-2-(tert-Butylsulfonyl)-1-cyclopropylethyl)-6-(3-chlorophenyl)-5-(4-chlorophenyl)-2-(isoxazol-5-ylmethyl)morpholin-3-one] yielded an IC50 of 0.013 µM.

`O=C(O)C[C@H]1O[C@H](c2cccc(Cl)c2)[C@@H](c2ccc(Cl)cc2)N([C@H](CS(=O)(=O)N2CCOCC2)C2CC2)C1=O` (single isomer, unassigned) [Example 303, 2-((2R,5R,6R)-6-(3-Chlorophenyl)-5-(4-chlorophenyl)-4-((S)-1-cyclopropyl-2-(morpholinosulfonyl)ethyl)-3-oxomorpholin-2-yl)acetic acid or 2-((2S,5R,6R)-6-(3-chlorophenyl)-5-(4-chlorophenyl)-4-((S)-1-cyclopropyl-2-(morpholinosulfonyl)ethyl)-3-oxomorpholin-2-yl)acetic acid] had a half-maximal inhibitory concentration (IC50) of 0.001 µM. To `C[C@]1(CC(=O)O)O[C@H](c2cccc(Cl)c2)[C@@H](c2ccc(Cl)cc2)N([C@H](CN(c2ccccc2F)S(=O)(=O)C2CC2)C2CC2)C1=O` (single isomer, unassigned) [Example 331, 2-((2R,5R,6R)-6-(3-Chlorophenyl)-5-(4-chlorophenyl)-4-((S)-1-cyclopropyl-2-(N-(2-fluorophenyl)cyclopropanesulfonamido)ethyl)-2-methyl-3-oxomorpholin-2-yl)acetic acid or 2-((2S,5R,6R)-6-(3-chlorophenyl)-5-(4-chlorophenyl)-4-((S)-1-cyclopropyl-2-(N-(2-fluorophenyl)cyclopropanesulfonamido)ethyl)-2-methyl-3-oxomorpholin-2-yl)acetic acid] belongs < 0.001 µM; to “2-((2R,5R,6R)-6-(3-Chlorophenyl)-5-(4-chlorophenyl)-4-((3S,5S)-5-hydroxyhexan-3-yl)-3-oxomorpholin-2-yl)acetic acid or 2-((2R,5R,6R)-6-(3-Chlorophenyl)-5-(4-chlorophenyl)-4-((3S,5R)-5-hydroxyhexan-3-yl)-3-oxomorpholin-2-yl)acetic acid [Example 126]”, 0.061 µM; to `O=C(O)C[C@H]1O[C@H](c2cccc(Cl)c2)[C@@H](c2ccc(Cl)cc2)N([C@H](CN(c2ccccc2F)S(=O)(=O)C2CC2)CC(F)(F)F)C1=O` (single isomer, unassigned) [Example 277], 0.106 µM. In turn, `CC[C@@H]([C@H](C)S(=O)(=O)C(C)(C)C)N1C(=O)[C@@H](CC(=O)O)O[C@H](c2cccc(Cl)c2)[C@H]1c1ccc(Cl)cc1` (single isomer, unassigned) [Example 420] showed an IC50 of 0.012 µM. Take `CC(C)(C)S(=O)(=O)C[C@H](C1CC1)N1C(=O)[C@@H](Cc2ncn[nH]2)O[C@H](c2cccc(Cl)c2)[C@H]1c1ccc(Cl)cc1` (single isomer, unassigned) [Example 390, (2R,5R,6R)-2-((1H-1,2,4-Triazol-5-yl)methyl)-4-((S)-2-(tert-butylsulfonyl)-1-cyclopropylethyl)-6-(3-chlorophenyl)-5-(4-chlorophenyl)morpholin-3-one or (2S,5R,6R)-2-((1H-1,2,4-triazol-5-yl)methyl)-4-((S)-2-(tert-butylsulfonyl)-1-cyclopropylethyl)-6-(3-chlorophenyl)-5-(4-chlorophenyl)morpholin-3-one]: the IC50 came to 0.011 µM.
